Test results as given in patent US10208045B2, “Aza-pyridone compounds and uses thereof” (Alios BioPharma, Inc., priority 2015, dated 2019).

How the values were obtained:
[1] = target: Full length EN PA (influenza endonuclease) (Influenza A virus, UniProt P15659); assay: EN PA FRET inhibition assay; type: biochemical; conditions: 50 Nm FRET probe, mean of a minimum of two independent experiments, read-out: Potency (IC50 class)
[2] = test system: Influenza strain A549_A/WSN/33 (H1N1); assay: Influenza antiviral assay (neuraminidase fluorescence readout in A549 or MDCK cells); type: cell-based; conditions: Influenza A virus, read-out: % Inhibition (EC50 class)

Row | Structure (SMILES) | IC50 [1] [nM] | EC50 [2] [nM]
1 | CCCN1C[C@H](C(c2cccc(F)c2)c2cccc(F)c2)n2ncc(=O)c(OC(C)=O)c2C1=O (single isomer, unassigned) [Compound 1] | < 250 | < 20000
2 | CN1C[C@H]([C@@H](c2ccccc2)n2cc(C#CC3CC3)c(C#CC3CC3)n2)n2ncc(=O)c(O)c2C1=O (single isomer, unassigned) [Compound 13] | < 250 | < 20000
3 | CN1C[C@H]([C@@H](c2ccccc2)n2cc(C#CCO)c(C#CCO)n2)n2ncc(=O)c(O)c2C1=O (single isomer, unassigned) [Compound 14] | < 250 | < 20000
4 | CC(C)OC(=O)OCOc1c2n(ncc1=O)[C@@H](C(c1ccccc1)c1ccccc1)CN(C(C)C)C2=O [Compound 2] | ≥ 1000 | < 20000
5 | CC(=O)Oc1c2n(ncc1=O)[C@@H](C1c3cccc(F)c3CCc3c(F)cccc31)CN(C(C)C)C2=O [Compound 3] | < 250 | < 20000
6 | CC(C)N1C[C@H](C(c2ccccc2)c2ccccc2)n2ncc(=O)c(O[C@@H]3OC(C(=O)O)[C@@H](O)C(O)C3O)c2C1=O (stereo partly drawn) [Compound 4] | < 250 | < 20000
7 | CN1CC(C(c2ccccc2)c2cn(C)c3cc(F)ccc23)n2ncc(=O)c(O)c2C1=O (stereo not drawn) [Compound 5] | < 250 | < 20000
8 | CCn1cc([C@@H](c2ccccc2)[C@H]2CN(C)C(=O)c3c(O)c(=O)cnn32)c2ccc(Br)cc21 [Compound 6] | 250 to 1000 | < 20000
9 | CN1C[C@H]([C@@H](c2ccccc2)n2cc(I)c(I)n2)n2ncc(=O)c(O)c2C1=O [Compound 7] | < 250 | < 20000
10 | CN1C[C@H]([C@H](c2ccccc2)n2cc(I)c(I)n2)n2ncc(=O)c(O)c2C1=O [Compound 8] | < 250 | < 20000
11 | CC(C)N1C[C@H](C(c2cccs2)c2cccs2)n2ncc(=O)c(O)c2C1=O [Compound 9] | < 250 | < 20000
12 | O=C1NC[C@H](C(c2ccccc2)c2ccccc2)n2ncc(=O)c(O)c21 [Compound 10] | < 250 | < 20000
13 | C#Cc1cccc(C(c2cccc(C#C)c2)C2CN(C(C)C)C(=O)c3c(O)c(=O)cnn32)c1 (stereo not drawn) [Compound 11] | < 250 | < 20000
14 | CC#Cc1cn([C@@H](c2ccccc2)[C@H]2CN(C)C(=O)c3c(O)c(=O)cnn32)nc1C#CC [Compound 12] | 250 to 1000 | < 20000
15 | C#Cc1cccc([C@@H](c2ccccc2)[C@H]2CN(C(C)C)C(=O)c3c(O)c(=O)cnn32)c1 [Compound 15] | < 250 | < 20000
16 | C#Cc1cn([C@@H](c2ccccc2)[C@H]2CN(C)C(=O)c3c(O)c(=O)cnn32)nc1C#C [Compound 16] | < 250 | < 20000
17 | [2H]C([2H])([2H])C([2H])(N1C[C@H](C(c2ccccc2)c2ccccc2)n2ncc(=O)c(O)c2C1=O)C([2H])([2H])[2H] [Compound 17] | < 250 | < 20000
18 | CCCCN1C[C@H](C(c2ccccc2)c2ccccc2)n2ncc(=O)c(O)c2C1=O [Compound 18] | < 250 | < 20000
19 | CCCN1C[C@H](C2c3ccccc3CCc3ccccc32)n2ncc(=O)c(O)c2C1=O [Compound 19] | < 250 | < 20000
20 | CCCN1C[C@@H](C2c3ccccc3CCc3ccccc32)n2ncc(=O)c(O)c2C1=O [Compound 20] | 250 to 1000 | < 20000
21 | CCCN1C[C@H](C2c3cccc(F)c3CCc3c(F)cccc32)n2ncc(=O)c(O)c2C1=O [Compound 21] | < 250 | < 20000
22 | CCCN1C[C@@H](C2c3cccc(F)c3CCc3c(F)cccc32)n2ncc(=O)c(O)c2C1=O [Compound 22] | ≥ 1000 | < 20000
23 | CC(C)C(=O)Oc1c2n(ncc1=O)[C@@H](C1c3ccccc3CCc3ccccc31)CN(C(C)C)C2=O [Compound 23] | < 250 | < 20000
24 | CC(=O)Oc1c2n(ncc1=O)[C@@H](C1c3ccccc3CCc3ccccc31)CN(C(C)C)C2=O [Compound 24] | < 250 | < 20000
25 | CCCN1C[C@H](C2c3ccccc3CCc3ccccc32)n2ncc(=O)c(OC(C)=O)c2C1=O [Compound 25] | < 250 | < 20000
26 | CCCN1C[C@H](C2c3ccccc3CCc3ccccc32)n2ncc(=O)c(OC(=O)C(C)C)c2C1=O [Compound 26] | < 250 | < 20000

Row | Structure (SMILES) | IC50 [1] [nM] | EC50 [2] [nM]
27 | CCN1C[C@H](C2c3ccccc3CCc3ccccc32)n2ncc(=O)c(OC(C)=O)c2C1=O [Compound 27] | < 250 | < 20000
28 | CCN1C[C@H](C2c3ccccc3CCc3ccccc32)n2ncc(=O)c(OC(=O)C(C)C)c2C1=O [Compound 28] | < 250 | –
29 | CCCN1C[C@H](C2c3cccc(F)c3CCc3c(F)cccc32)n2ncc(=O)c(OC(C)=O)c2C1=O [Compound 29] | < 250 | < 20000
30 | CC(C)OC(=O)Oc1c2n(ncc1=O)[C@@H](C1c3cccc(F)c3CCc3c(F)cccc31)CN(C(C)C)C2=O [Compound 30] | < 250 | < 20000
31 | CC(C)COC(=O)Oc1c2n(ncc1=O)[C@@H](C1c3cccc(F)c3CCc3c(F)cccc31)CN(C(C)C)C2=O [Compound 31] | < 250 | < 20000
32 | CC(C)N1C[C@H]([C@@H](c2ccccc2)n2cc(C#CC3CC3)c(C#CC3CC3)n2)n2ncc(=O)c(O)c2C1=O [Compound 33] | 250 to 1000 | < 20000
33 | CC(C)N1C[C@H]([C@@H](c2ccccc2)n2cc(C#CCO)c(C#CCO)n2)n2ncc(=O)c(O)c2C1=O [Compound 34] | < 250 | < 20000
34 | CN1C[C@H]([C@H](c2ccccc2)n2cc(C#CC3CC3)c(C#CC3CC3)n2)n2ncc(=O)c(O)c2C1=O [Compound 35] | ≥ 1000 | < 20000
35 | CN1C[C@H]([C@H](c2ccccc2)n2cc(C#CCO)c(C#CCO)n2)n2ncc(=O)c(O)c2C1=O [Compound 36] | < 250 | < 20000
36 | Cc1cccc(C(c2cccc(C)c2)[C@H]2CN(C(C)C)C(=O)c3c(O)c(=O)cnn32)c1 [Compound 37] | < 250 | < 20000
37 | O=C1c2c(O)c(=O)cnn2[C@@H](C(c2ccccc2)c2ccccc2)CN1Cc1ccccc1 [Compound 38] | < 250 | < 20000
38 | CC(C)[C@H](N)C(=O)OCOc1c2n(ncc1=O)[C@@H](C1c3cccc(F)c3CCc3c(F)cccc31)CN(C(C)C)C2=O [Compound 39] | < 250 | < 20000
39 | CC(C)[C@H](N)C(=O)OCOc1c2n(ncc1=O)[C@@H](C1c3ccccc3CCc3ccccc31)CN(C(C)C)C2=O [Compound 40] | < 250 | < 20000
40 | CC(C)OC(=O)OCOc1c2n(ncc1=O)[C@@H](C1c3cccc(F)c3CCc3c(F)cccc31)CN(C(C)C)C2=O [Compound 41] | < 250 | < 20000
41 | CN1C[C@H]([C@H](c2ccccc2)n2cc(C#CC3(O)CCC3)c(C#CC3(O)CCC3)n2)n2ncc(=O)c(O)c2C1=O [Compound 46] | 250 to 1000 | 20000 to 100000
42 | CCn1cc([C@@H](c2ccccc2)[C@H]2CN(C)C(=O)c3c(O)c(=O)cnn32)c2ccc(CO)cc21 [Compound 48] | ≥ 1000 | –
43 | CCn1cc([C@H](c2ccccc2)[C@H]2CN(C)C(=O)c3c(O)c(=O)cnn32)c2ccc(CO)cc21 [Compound 49] | ≥ 1000 | –
44 | CCCN1C[C@H](C(c2cccc(Cl)c2)c2cccc(Cl)c2)n2ncc(=O)c(OC(C)=O)c2C1=O [Compound 54] | < 250 | < 20000
45 | CCCN1C[C@H](C2c3cccc(Cl)c3CCc3c(Cl)cccc32)n2ncc(=O)c(O)c2C1=O [Compound 99] | < 250 | < 20000
46 | CN1C[C@H](C2c3cccc(Cl)c3CCc3c(Cl)cccc32)n2ncc(=O)c(O)c2C1=O [Compound 100] | < 250 | < 20000
47 | CC(C)N1C[C@H](C2c3ccc(F)cc3CCc3cc(F)ccc32)n2ncc(=O)c(O)c2C1=O [Compound 101] | < 250 | < 20000
48 | CCCN1C[C@H](C2c3ccc(F)cc3CCc3cc(F)ccc32)n2ncc(=O)c(O)c2C1=O [Compound 102] | < 250 | < 20000
49 | CC(C)N1C[C@H](C2c3ccc(Cl)cc3CCc3cc(Cl)ccc32)n2ncc(=O)c(O)c2C1=O [Compound 103] | < 250 | < 20000
50 | CCCN1C[C@H](C2c3ccc(Cl)cc3CCc3cc(Cl)ccc32)n2ncc(=O)c(O)c2C1=O [Compound 104] | < 250 | < 20000
51 | CC(=O)Oc1c2n(ncc1=O)[C@@H](C(c1cccc(Cl)c1)c1cccc(Cl)c1)CN(C(C)C)C2=O [Compound 107] | < 250 | < 20000
